From US5770734A, “N-substituted-2-aminoquinolines useful for treating hypofunction of the cholinergic system” (American Home Products Corporation, priority 1992, dated 1998)
Structures can show the parent of a compound that is named as a salt. Where two headings read alike, the source gives them in different places.

Legend:
[1] = target: T1, M2 receptors (Rattus norvegicus, UniProt P10980); test: biochemical; assay type: binding
T1 sequence (P10980 1-466): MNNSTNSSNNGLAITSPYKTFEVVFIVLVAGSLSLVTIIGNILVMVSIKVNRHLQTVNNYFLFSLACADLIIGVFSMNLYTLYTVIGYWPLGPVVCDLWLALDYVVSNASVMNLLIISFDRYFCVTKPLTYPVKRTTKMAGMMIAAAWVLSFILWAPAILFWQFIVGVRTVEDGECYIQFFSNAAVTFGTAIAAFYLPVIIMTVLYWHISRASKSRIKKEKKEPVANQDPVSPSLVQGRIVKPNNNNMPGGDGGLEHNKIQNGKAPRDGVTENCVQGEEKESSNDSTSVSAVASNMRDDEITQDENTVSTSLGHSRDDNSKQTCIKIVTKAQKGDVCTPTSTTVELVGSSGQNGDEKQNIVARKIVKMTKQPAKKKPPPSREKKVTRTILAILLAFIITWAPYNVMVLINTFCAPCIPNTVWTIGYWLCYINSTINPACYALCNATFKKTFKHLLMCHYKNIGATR

[2] = system: M2 receptors; test: biochemical; assay type: binding; settings: Table 1; ratio of M2 IC50 to M1 IC50
[3] = target: T2, M1 muscarinic receptor (Rattus norvegicus, UniProt P08482); test: M1 receptor binding ([^3 H]-pirenzepine); parameters: species or system rat (male Sprague-Dawley)
T2 sequence (P08482 1-460): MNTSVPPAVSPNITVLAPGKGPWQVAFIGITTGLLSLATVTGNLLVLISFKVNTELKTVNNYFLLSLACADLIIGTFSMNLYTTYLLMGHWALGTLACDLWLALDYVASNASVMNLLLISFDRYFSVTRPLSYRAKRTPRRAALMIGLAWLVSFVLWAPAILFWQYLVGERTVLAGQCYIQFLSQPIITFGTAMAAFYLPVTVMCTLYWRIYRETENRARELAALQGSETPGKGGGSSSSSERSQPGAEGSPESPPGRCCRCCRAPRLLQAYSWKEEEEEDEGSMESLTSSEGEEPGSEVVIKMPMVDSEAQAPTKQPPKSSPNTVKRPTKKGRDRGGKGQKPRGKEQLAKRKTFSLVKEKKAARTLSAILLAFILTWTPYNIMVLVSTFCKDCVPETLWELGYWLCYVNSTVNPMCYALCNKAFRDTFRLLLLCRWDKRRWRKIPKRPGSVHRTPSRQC
Protocol: Compounds are tested for their ability to affect M1 muscarinic binding through use of [^3 H]-pirenzepine ([^3 H]PZ) as a prototypic M1 receptor ligand. Male Sprague-Dawley (Charles River) rats are used. Dose selection is typically in the concentration range of 10^-9 to 10^-4 M. Test and reference compounds are dissolved and diluted in water or ethanol and are then added to the assay buffer. The appropriate vehicle is added to the assay buffer for control testing.
The rats (approximately 300 gm body weight) have free access to food and water and are housed in groups of four to six. On the test day, the rats are euthanized by decapitation and brain tissue is dissected and homogenized using a hand-held teflon-coated pestle, in 20 volumes of 0.32M sucrose (20 strokes at 4° C.). After centrifugation (747×g for 10 minutes at 4° C.), the resultant supernatant is decanted and recentrifuged (18677×g for 20 minutes at 4° C.). The resultant pellet is resuspended in the original volume of 0.32M sucrose and frozen. After thawing, the suspension is diluted (1:1 v/v) with 10 mM Na2 HPO4 /KH2 PO4 buffer (pH=7.4). [^3 H]PZ (0.5 nM, 0.04 μCi) is then incubated with a 100 μl sample of the tissue suspension in the above buffer (1 ml final volume, including a 10 μl sample of test compound or vehicle). […] After 60 minutes of incubation at 25° C. (in the dark), the binding is terminated by vacuum filtration onto Whatman GF/B filters (pre-soaked for 60 minutes in 0.1% (w/v) polyethylenimine to reduce non-specific binding). After three washes with the previously mentioned buffer (4° C., 3 ml/wash), the vacuum is allowed to run for two minutes before the filter-trapped radioactivity is assayed by liquid scintillation spectroscopy.
Data are presented as the percent inhibition ([control-test]/control×100%) or enhancement ([test-control]/control×100%) of [^3 H]PZ binding by the test or reference compound. The IC50 value (the drug concentration which causes a 50% inhibition of specific [^3 H]PZ binding) is calculated through the use of the EDOSE program (with probit transformation written by a person for use in STAT80). Increases in [^3 H]PZ are reported as percent increase (versus control) for a given test drug concentration.

[4] = system: scopolamine-induced hyperactivity, a proposed muscarinic M1 -mediated effect; test: Scopolamine-induced hyperactivity (locomotor activity); assay type: in vivo, rat; settings: for Total activity: N=10
Protocol: Compounds were evaluated for the ability to attenuate scopolamine-induced hyperactivity, a proposed muscarinic M1 -mediated effect. Animals were permitted to habituate for 30 minutes in locomotor activity chambers (Digiscan, Omnitech; Columbus, Ohio) in which infrared detectors were used to measure movement in 3 axes. The animals were then injected i.p. with vehicle alone, scopolamine alone (1.7 mg/kg) or both scopolamine and one dose of the test compound. Animals were then replaced in the chambers and locomotor activity was measured for an additional 1 hour period. Total activity measures (vertical+horizintal movements) were collected and statistically analyzed in four 15 minute periods.

[5] = Table 1, rat brain tissue, [^3 H]PZ 0.5 nM, read-out: ^3 H-Pirenzepine M1 IC50

Work on `Cc1cc(NCCCCN2CCN(C)CC2)nc2ccccc12` [Example 6, 4-Methyl-N-[4-(4-methyl-1-piperazinyl)butyl]-2-quinolinamine (E)-2-butenedioate (1:2) one and three quarter hydrate] yielded an IC50 ([1]; read-out: ^3 H-QNB M2 IC50) of 5.5 µM, an M2/M1 [2] of 15 and an IC50 [3, 5] of 0.37 µM.
Work on `Cc1cc(NCCCN2CCCCC2)nc2ccccc12` [Example 8, 4-Methyl-N-[3-(1-piperidinyl)propyl]-2-quinolinamine (E)-2-butenedioate (1:1) hemihydrate] yielded an IC50 ([1]; read-out: ^3 H-QNB M2 IC50) of 4.6 µM, an M2/M1 [2] of 11 and an IC50 [3, 5] of 0.42 µM.
For `Cc1cc(NCCCN(C)C)nc2ccccc12.O=C(O)/C=C/C(=O)O.O=C(O)/C=C/C(=O)O` [Example 13, N,N-Dimethyl-N'-(4-methyl-2-quinolinyl)-1,3-propanediamine (E)-2-butenedioate (1:2)], the IC50 ([1]; read-out: ^3 H-QNB M2 IC50) was 21 µM, the M2/M1 [2] was 26 and the IC50 [3, 5] was 0.82 µM.
In the case of `Cc1cc(NCCCCN2CCOCC2)nc2ccccc12` [Example 4, 4-Methyl-N-[4-(4-morpholinyl)butyl]-2-quinolinamine (E)-2-butenedioate (1:1.15)], the IC50 ([1]; read-out: ^3 H-QNB M2 IC50) is reported as 22 µM, the M2/M1 [2] is reported as 41 and the IC50 [3, 5] is reported as 0.54 µM.
`Cc1cc(NCCCN2CCCC2=O)nc2ccccc12` [Example 7, 4-Methyl-N-[3-(1-pyrrolidin-2-on)propyl]-2-quinolinamine hydrochloride three-quarter hydrate] was tested, and the IC50 ([1]; read-out: ^3 H-QNB M2 IC50) was 20 µM, the M2/M1 [2] was 15 and the IC50 [3, 5] was 1.3 µM.
`Cl.Cl.c1ccc2nc(NCCCN3CCOCC3)ccc2c1` [Example 2, N-[3-(4-Morpholinyl)propyl]-2-quinolinamine dihydrochloride] gave an IC50 ([1]; read-out: ^3 H-QNB M2 IC50) of 116 µM, an M2/M1 [2] of 46 and an IC50 [3, 5] of 2.5 µM.
`CCc1cc(NCCCN2CCOCC2)nc2ccccc12` [Example 9, 4-Ethyl-N-[3-(4-morpholinyl)propyl]-2-quinolinamine dihydrochloride three quarter hydrate] gave an IC50 ([1]; read-out: ^3 H-QNB M2 IC50) of 44 µM, an M2/M1 [2] of 22 and an IC50 [3, 5] of 2 µM.
`CCN(CC)CCCNc1cc(C)c2ccccc2n1` [Example 11, N,N-Diethyl-N'-(4-methyl-2-quinolinyl)-1,3-propanediamine dihydrochloride hemihydrate] gave an IC50 ([1]; read-out: ^3 H-QNB M2 IC50) of 18 µM, an M2/M1 [2] of 86 and an IC50 [3, 5] of 0.21 µM.
Work on `c1ccc2c(C3CCCCC3)cc(NCCCN3CCOCC3)nc2c1` [Example 10, 4-Cyclohexyl-N-[3-(4-morpholinyl)propyl]-2-quinolinamine dihydrochlorideone quarter hydrate] yielded an IC50 ([1]; read-out: ^3 H-QNB M2 IC50) of 13 µM, an M2/M1 [2] of 6 and an IC50 [3, 5] of 2.3 µM.
In the case of `Cc1cc(NCCCN2CCN(C)CC2)nc2ccccc12` [Example 3, 4-Methyl-N-[3-(4-methyl-1-piperazinyl)propyl]-2-quinolinamine (E)-2-butenedioate (1:2) hemihydrate], the IC50 ([1]; read-out: ^3 H-QNB M2 IC50) is reported as 28 µM, the M2/M1 [2] is reported as 46 and the IC50 [3, 5] is reported as 0.6 µM.
Work on `Cc1cc(NCCN2CCOCC2)nc2ccccc12` [Example 5, 4-Methyl-N-[2-(4-morpholinyl)ethyl]-2-quinolinamine (E)-2-butenedioate (3:2) quarter hydrate] yielded an IC50 ([1]; read-out: ^3 H-QNB M2 IC50) of 200 µM, an M2/M1 [2] of 21 and an IC50 [3, 5] of 9.7 µM.
`Cc1cc(NCCN(C)C)nc2ccccc12.O=C(O)/C=C/C(=O)O` [Example 12, N,N-Dimethyl-N'-(4-methyl-2-quinolinyl)-1,2-ethanediamine (E)-2-butenedioate (1:1)] showed an IC50 ([1]; read-out: ^3 H-QNB M2 IC50) of 35 µM, an M2/M1 [2] of 27 and an IC50 [3, 5] of 1.32 µM.
Compound `O=C1CCCN1CC#CCN1CCCC1` [Oxotremorine sesquifumarate, reference compound] has an IC50 [1] of 1.3 µM and an IC50 [3] of 0.11 µM.
With `O=C1CCCN1CC#CCN1CCCC1` [Oxotremorine] the minimal effective dose ([4]; Rattus norvegicus, ip, read-out: minimum effective dose) was 0.3 mg/kg, the “effect on scopolamine hyperactivity at lower doses” value ([4]; doses below 0.3 mg/kg) was “some effect of oxotremorine was seen at lower doses” and the Total activity ([4]; scopolamine + oxotremorine 0.03 mg/kg, 15 min) was 3020. The Total activity ([4]; scopolamine + oxotremorine 0.03 mg/kg, 30 min) was 4083, the Total activity ([4]; scopolamine + oxotremorine 0.03 mg/kg, 45 min) was 3332 and the Total activity ([4]; scopolamine + oxotremorine 0.03 mg/kg, 60 min) was 2265. It also gave a Total activity ([4]; scopolamine + oxotremorine 0.1 mg/kg, 15 min) of 5709, a Total activity ([4]; scopolamine + oxotremorine 0.1 mg/kg, 30 min) of 4305 and a Total activity ([4]; scopolamine + oxotremorine 0.1 mg/kg, 45 min) of 3725. For the same compound, the Total activity ([4]; scopolamine + oxotremorine 0.1 mg/kg, 60 min) was 2571, the Total activity ([4]; scopolamine + oxotremorine 0.3 mg/kg, 15 min) was 2523 and the Total activity ([4]; scopolamine + oxotremorine 0.3 mg/kg, 30 min) was 1819. The Total activity ([4]; scopolamine + oxotremorine 0.3 mg/kg, 45 min) was 2351 and the Total activity ([4]; scopolamine + oxotremorine 0.3 mg/kg, 60 min) was 1573.
Work on “3-[[[(3-chlorophenyl)amino]carbonyl]oxy]-N,N,N-trimethyl-1-propynaminium chloride [reference compound]” yielded an IC50 ([1]; typical results, reference drugs, read-out: IC50, [^3 H]QNB binding (M2)) of 42 µM and an IC50 ([3]; typical results, reference drugs, read-out: IC50, [^3 H]PZ binding (M1)) of 1.3 µM.
